Results published in patent US20250177421A1, “METHOD FOR PREVENTING OR TREATING HEARING LOSS” (MACKAY MEDICAL COLLEGE, priority 2022, published 2025).

Assays:
[1] = tested on: mouse cochlear tissues; experiment: NanoString neuropathology gene expression analysis of cochlear tissues; type: in vivo, mice
Experimental: Total mRNA was extracted from mouse cochlear tissues as per the protocol described in previous studies^[10, 11]. The expression profile of neuropathological genes was analyzed using a NanoString mouse neuropathology panel (NanoString Technologies, Seattle, WA, USA), which includes genes involved in neural cell types and neuropathological processes^[12, 13]. All analyses of genes or pathways scores were performed in accordance with the user manual of the nCounter Advanced Analysis Software and were described in detail in previous studies^[10, 11]. Cold Spring Biotech in Taiwan was responsible for performing the NanoString gene expression analysis and bioinformatics analyses.

[2] = tested on: kanamycin/furosemide-injected mice; experiment: Loss of OHCs in cochlear tissues (immunohistochemical staining), kanamycin/furosemide-induced SNHL in mice; type: in vivo; settings: IP6 80 mg/kg IP for 5 days in kanamycin/furosemide-injected mice
Experimental: For the kanamycin-induced SNHL in mice, the schematic protocol for the dosing and timing of kanamycin, furosemide, IP6 and/or fucoxanthin was presented in FIG. 1B. Kanamycin (Sigma Aldrich, USA) was dissolved in PBS, and kanamycin (1 mg/g) and furosemide (0.1 mg/g, Sigma Aldrich, USA) were injected as a single dose on the first day. Specifically, furosemide was intraperitoneally injected within 30 min after kanamycin was injected subcutaneously (SC). One hour later, IP6 and/or fucoxanthin was intraperitoneally injected for 5 consecutive days. Experimental mice were anesthetized, and their cochlear tissues were isolated and dissected. For whole-mount dissection, the protocol detailed by Neal et al. was followed^[5]. In brief, the cochlea was decalcified for 1 hour using a decalcification solution purchased from Apex Engineering (Aurora, IL, USA). […] The images at three randomly-selected regions (300 μm length) in the apical, middle, and basal cochlear turns were acquired by using the same apparatus, and the loss of OHCs was manually counted. Average loss of OHCs was then calculated in apex, middle and base regions, respectively^[6]. Fluorescent images were taken with a Leica SP8 confocal fluorescence microscope. […] One week later, the hearing threshold of all groups of mice was measured using ABR instrument. […]

[3] = design: species or system mice; settings: mouse, in vivo
Experimental: (§1) The used procedures followed the protocol reported by Wu et al.^[3]. Inositol hexaphosphate (IP6) obtained from Sigma (USA) was dissolved in ddH2O, and the doses given to the experimental mice intraperitoneally were 40 mg/kg and 80 mg/kg (100 μL of IP6). […] The mice of the control group received only phosphate-buffered saline (PBS, 100 μL).

[4] = tested on: aging mice; experiment: ABR hearing threshold, age-related hearing loss (ARHL) mouse model; type: in vivo; settings: IP6 drink group (2% IP6 in drinking water for 10 months), 12-month-old mice
[5] = tested on: cisplatin-injected mice; experiment: Auditory brainstem response (ABR) hearing threshold, cisplatin-induced SNHL in mice; type: in vivo; settings: cisplatin-injected mice (3 mg/kg IP, 5 days) with IP6 40 or 80 mg/kg IP; measured one week later
[6] = tested on: cisplatin-injected mice; experiment: Loss of outer hair cells (OHCs) count in cochlear tissues, cisplatin-induced SNHL in mice; type: in vivo
Experimental: as §1
Experimental mice were anesthetized, and their cochlear tissues were isolated and dissected. For whole-mount dissection, the protocol detailed by Neal et al. was followed^[5]. In brief, the cochlea was decalcified for 1 hour using a decalcification solution purchased from Apex Engineering (Aurora, IL, USA). The excess temporal bone around the cochlea was trimmed, and the cochlea was bisected along the midmodiolar plane and then submerged in phosphate buffered saline (PBS). A series of cuts through the modiolus separated the half-turns from one another. […]
For the loss of OHCs counts, hair cells (HCs) were counterstained with phalloidin, Myo7A and DAPI stainings. […] The images at three randomly-selected regions (300 μm length) in the apical, middle, and basal cochlear turns were acquired by using the same apparatus, and the loss of OHCs was manually counted. Average loss of OHCs was then calculated in apex, middle and base regions, respectively^[6]. Fluorescent images were taken with a Leica SP8 confocal fluorescence microscope. […]

[7] = tested on: kanamycin/furosemide-injected mice; experiment: ABR hearing threshold, kanamycin/furosemide-induced SNHL in mice; type: in vivo; settings: IP6 80 mg/kg or fucoxanthin 60 mg/kg IP for 5 consecutive days
Experimental: For the kanamycin-induced SNHL in mice, the schematic protocol for the dosing and timing of kanamycin, furosemide, IP6 and/or fucoxanthin was presented in FIG. 1B. Kanamycin (Sigma Aldrich, USA) was dissolved in PBS, and kanamycin (1 mg/g) and furosemide (0.1 mg/g, Sigma Aldrich, USA) were injected as a single dose on the first day. Specifically, furosemide was intraperitoneally injected within 30 min after kanamycin was injected subcutaneously (SC). One hour later, IP6 and/or fucoxanthin was intraperitoneally injected for 5 consecutive days. The ABR of mice was measured to evaluate their hearing threshold. In brief, measurements were performed on the scalps of mice under anesthesia by using subdermal needle electrodes placed at the vertex, below the pinna of the left ear (as a reference measurement), and below the contralateral ear (ground). The sound stimuli included clicks ([…]; 4, 8, and 12 kHz). The devices used for ABR measurement were specifically designed for animal experiments (BIOPAC System, USA). […] The ABR threshold was measured through detection of the presence of V waves. […] One week later, the hearing threshold of all groups of mice was measured using ABR instrument. […]

[8] = tested on: 12-month-old C57BL/6J mice; experiment: Loss of OHCs and IHCs in cochlear tissues (immunohistochemical staining), ARHL mouse model; type: in vivo; settings: 12-month-old mice
[9] = 2% IP6 through drinking water for 10 months
[10] = IP6 80 mg/kg IP three days per week for 10 months

O=P(O)(O)O[C@H]1[C@H](OP(=O)(O)O)[C@@H](OP(=O)(O)O)[C@H](OP(=O)(O)O)[C@@H](OP(=O)(O)O)[C@H]1OP(=O)(O)O [IP6, inositol hexaphosphate]
carbohydrate metabolism: mRNA levels of Akt3, Slc1a1, and Slc1a2 ([1]; IP6 treatment): upregulated
lipid metabolism: mRNA levels of Cers6, Dgkb, Dgke, B4galt6, and Pla2g4c ([1]; IP6 treatment, P<0.05): upregulated
microglia gene score: mRNA levels of Amigo1, Atp6v1a, and Ap3m2 ([1]; after IP6 treatment (80 mg/kg), kanamycin/furosemide-injected mice, P<0.05): significantly upregulated
endothelial cell gene score: mRNA levels of Nrxn1 and Prkcb ([1]; after IP6 treatment (80 mg/kg), Nrxn1 P<0.01, Prkcb P<0.05): significantly upregulated
neuron score genes (Plcb4, Cacna1a, Calb1, Hen1, Cur1, Arhgap44, Gria4, Scn1a, Grik2, Cntnap1, Shank2, Lrrc4, Rab3a, Nrxn1, Adora1, Pak1, Frmpd4, Scn2a1, Dagla, Atcay) ([1]; after IP6 treatment (80 mg/kg), P<0.01): significantly upregulated
myelination gene score: mRNA levels of Cntnap1, Scn2a1, and Amigo1 ([1]; after IP6 treatment, Cntnap1 P<0.01, Scn2a1 and Amigo1 P<0.05): significantly upregulated
vesicle trafficking gene scores: mRNA levels of Cacna1a, Calb1, Gabrb2, Syt4, Cnr1, Gria4, Grik2, Rims1, Cacnb4, Stx1b, Shank2, Fgf14, Syt13, Rab3a, Ncam1, Nrxn1, Adora1, Nova1, Gabra1, Rit2 ([1]; after IP6 treatment, P<0.01): significantly upregulated
transcriptional patterns of astrocytes, endothelial cells, microglia, and neurons ([1]; kanamycin/furosemide-injected mice, 80 mg/kg IP6): reversed
loss of OHCs (Myo7A+) in the apex, middle and base regions of the cochlear tissues [2]: significantly reduced
serum alanine aminotransferase (ALT) [3]: no difference
serum aspartate aminotransferase (AST) [3]: no difference
serum total bilirubin [3]: no difference
hearing function at the frequency of 12 kHz compared with the control group [4]: significantly improved
hearing threshold (ABR) after IP6 treatment [5]: 20 to 30 db
loss of OHCs (Myo7A+) in the apex, middle, and base regions ([6]; IP6 80 mg/kg IP 2 h before cisplatin 3 mg/kg IP, once per day for 5 days, compared with cisplatin-injected mice without IP6): significantly reduced
hearing threshold (ABR) of kanamycin/furosemide-injected mice [7]: significant reduction
loss of IHCs (Myo7A+) in the base regions [8, 9]: moderately mitigated
loss of OHCs (Myo7A+) in the apex, middle, and base regions [8, 9]: moderately mitigated
loss of IHCs (Myo7A+) in the base regions [8, 10]: moderately mitigated
loss of OHCs (Myo7A+) in the apex, middle, and base regions [8, 10]: moderately mitigated

N.N.[Cl][Pt][Cl] [cisplatin, reference compound]
serum alanine aminotransferase (ALT) [3]: no difference
serum aspartate aminotransferase (AST) [3]: no difference
serum total bilirubin [3]: no difference
loss of OHCs (Myo7A+) in the apex, middle, and base regions ([6]; cisplatin 3 mg/kg IP once per day for 5 days, compared with the control group): significant loss

fucoxanthin
hearing threshold (ABR) of kanamycin/furosemide-injected mice [7]: significant reduction
